Molecules are shown by their SMILES.

The subject of data set [1] is HCT116. Put plainly: In vitro cytotoxicity, MTT colorimetric assay. The class given is cell-based, human. Particulars: for IC50: Homo sapiens, HCT-116, MTT, mean ± S.D. of triplet separate experiments; for fold more toxic in HCT-116 than in normal VERO cells: ratio VERO vs HCT-116. A general note: Tetrazolium dyes change colour on reduction, which living cells bring about.

Data set [2] concerns the target VEGFR-2 (Homo sapiens, UniProt P35968). Put plainly: In vitro VEGFR-2 kinase assay (anti-phosphotyrosine antibody, Alpha Screen system). The class given is biochemical. The settings on record: mean ± S.D. of triplet separate experiments.
Data set [3] deals with MCF-7. Kind of data set: In vitro cytotoxicity, MTT colorimetric assay. The class given is cell-based, human. Particulars: for IC50: Homo sapiens, MCF7, MTT, mean ± S.D. of triplet separate experiments; for fold higher toxicity in MCF-7 than in normal VERO cells: ratio VERO vs MCF-7.
The subject of data set [4] is HepG2. Kind of data set: In vitro cytotoxicity, MTT colorimetric assay. The class given is cell-based, human. Particulars: for IC50: Homo sapiens, HepG2, MTT, mean ± S.D. of triplet separate experiments; for fold more toxic against HepG2 than normal VERO cells: ratio VERO vs HepG2.
The target of data set [5] is T1, PPARγ (Homo sapiens, UniProt P37231).
T1 sequence (P37231 1-505): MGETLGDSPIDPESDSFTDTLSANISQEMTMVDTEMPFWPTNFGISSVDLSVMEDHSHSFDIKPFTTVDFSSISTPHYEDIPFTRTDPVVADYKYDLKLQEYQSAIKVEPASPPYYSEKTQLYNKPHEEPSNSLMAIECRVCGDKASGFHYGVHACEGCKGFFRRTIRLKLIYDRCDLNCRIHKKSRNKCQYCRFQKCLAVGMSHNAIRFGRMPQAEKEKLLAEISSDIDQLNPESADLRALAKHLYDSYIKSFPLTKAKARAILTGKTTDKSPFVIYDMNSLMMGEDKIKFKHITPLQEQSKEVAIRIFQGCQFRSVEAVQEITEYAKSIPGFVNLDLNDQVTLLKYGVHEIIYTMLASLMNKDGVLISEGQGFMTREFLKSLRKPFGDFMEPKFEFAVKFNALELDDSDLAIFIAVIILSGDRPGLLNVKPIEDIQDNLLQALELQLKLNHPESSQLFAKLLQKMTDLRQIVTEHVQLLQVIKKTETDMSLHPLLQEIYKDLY
Put plainly: In vitro PPARγ ligand binding assay (Fluorescence Polarization). The settings on record: concentration required to displace 50% of the titrated ligand; n = 3; read-out: IC50 PPARγ Binding Affinity. Background: Fluorescence polarisation rises when a labelled molecule tumbles more slowly, as on binding a larger partner.

The subject of data set [6] is isolated pancreatic islets of rats. Put plainly: In vitro insulin secretion assay (sandwich enzyme immunoassay). The settings on record: Pancreatic islet; isolated rat pancreatic islets; concentration for 50% of the maximum action; n = 3; read-out: EC50 Insulin Secreting Activity. The class given is cell-based. The method, then: Compounds 5a–c, 6a–c and 7a–c were also assessed to establish their insulin-secretion activities in vitro against isolated pancreatic islets of rats through the quantitative sandwich technique of enzyme immunoassay. Glimiperide was applied as the standard. The findings are described as the EC50 values (Table 4).

Data set [7] deals with VERO normal cell lines. Put plainly: Cytotoxicity against normal cells. The class given is cell-based. The settings on record: Chlorocebus sabaeus, mean ± S.D. of triplet separate experiments. The method, then:
The cytotoxic effects of the prepared derivatives against the malignant cell lines ranged from 5.77 to 17.65 μM. Derivatives 6a–c and 7a–c were, respectively, 3.41-, 3.83-, 6.93-, 4.99-, 5.45- and 7.74-fold times more toxic against HepG2 than normal VERO cells. Similarly, derivatives 6a-c and 7a-c were, respectively, 2.74-, 2.97-, 6.04-, 3.58-, 3.90- and 11.83-fold more toxic in HCT-116 than in normal VERO cells.

Chain of VEGFR-2 (P35968 20-1356): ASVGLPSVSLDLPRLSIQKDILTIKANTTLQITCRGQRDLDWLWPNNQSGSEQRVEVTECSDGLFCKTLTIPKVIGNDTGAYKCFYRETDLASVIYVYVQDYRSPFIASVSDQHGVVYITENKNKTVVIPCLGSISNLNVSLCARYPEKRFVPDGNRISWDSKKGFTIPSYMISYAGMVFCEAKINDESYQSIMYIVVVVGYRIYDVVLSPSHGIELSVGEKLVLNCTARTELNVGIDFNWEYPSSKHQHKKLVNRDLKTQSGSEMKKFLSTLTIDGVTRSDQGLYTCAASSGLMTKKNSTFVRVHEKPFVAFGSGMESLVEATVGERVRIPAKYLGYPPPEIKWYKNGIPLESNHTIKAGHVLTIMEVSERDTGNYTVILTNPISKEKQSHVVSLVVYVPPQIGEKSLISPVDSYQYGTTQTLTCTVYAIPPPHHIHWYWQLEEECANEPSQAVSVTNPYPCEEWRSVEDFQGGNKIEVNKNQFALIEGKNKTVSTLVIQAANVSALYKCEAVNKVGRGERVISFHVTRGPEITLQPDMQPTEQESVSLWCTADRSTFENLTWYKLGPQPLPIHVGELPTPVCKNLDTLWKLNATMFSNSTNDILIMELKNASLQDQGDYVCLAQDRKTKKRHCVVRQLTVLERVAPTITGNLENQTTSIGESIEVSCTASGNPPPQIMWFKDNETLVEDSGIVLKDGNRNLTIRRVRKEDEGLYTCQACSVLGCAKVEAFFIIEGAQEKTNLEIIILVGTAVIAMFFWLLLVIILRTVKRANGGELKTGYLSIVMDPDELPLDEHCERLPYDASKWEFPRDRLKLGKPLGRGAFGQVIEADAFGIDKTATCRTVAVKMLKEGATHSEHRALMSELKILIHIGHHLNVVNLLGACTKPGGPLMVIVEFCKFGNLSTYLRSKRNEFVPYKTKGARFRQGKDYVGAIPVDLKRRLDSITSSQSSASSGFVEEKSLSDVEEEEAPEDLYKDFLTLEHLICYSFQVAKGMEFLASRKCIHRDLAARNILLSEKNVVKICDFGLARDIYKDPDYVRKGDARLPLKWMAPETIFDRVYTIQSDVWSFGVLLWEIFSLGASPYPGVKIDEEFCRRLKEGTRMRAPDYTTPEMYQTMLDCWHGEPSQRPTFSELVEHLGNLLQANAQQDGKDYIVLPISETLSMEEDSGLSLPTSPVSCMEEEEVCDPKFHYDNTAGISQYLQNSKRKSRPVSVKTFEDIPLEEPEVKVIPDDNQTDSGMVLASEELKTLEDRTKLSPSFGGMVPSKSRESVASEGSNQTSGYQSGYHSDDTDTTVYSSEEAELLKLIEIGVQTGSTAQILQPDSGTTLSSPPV

What is called IC50 is the midpoint of a concentration-inhibition curve. Consider `NS(=O)(=O)c1ccc(NC(=O)CN2C(=O)CSC2=O)cc1` [Compound 3, 2-(2,4-Dioxothiazolidin-3-yl)-N-(4-Sulfamoylphenyl)-Acetamide], for which the IC50 in data set [1] was 61.5 ± 5.1 µM; in data set [2], 0.93 ± 0.06 µM; in data set [3], 60.2 ± 5.1 µM; in data set [4], 58.6 ± 5.1 µM.
As usually defined, the EC50 is the concentration needed to bring the measured effect to its halfway point. Regarding `CCNC(=S)NS(=O)(=O)c1ccc(NC(=O)CN2C(=O)CSC2=O)cc1` [Compound 5a, 2-(2,4-Dioxothiazolidin-3-yl)-N-(4-(N-(ethylcarbamothioyl)sulfamoyl)phenyl)acetamide], the IC50 in data set [1] is 40.1 ± 2.2 µM; in data set [2], 0.46 ± 0.05 µM; in data set [5], 0.393 µM; in data set [3], 28.8 ± 2.2 µM; in data set [4] it was 24.5 ± 2.2 µM. For the same compound, the EC50 in data set [6] came out at 1.2 µM.
The term melting point denotes the temperature, or range, at which the solid turns liquid. As to `CCNC(=S)NS(=O)(=O)c1ccc(NC(=O)CN2C(=O)SC(=Cc3ccccc3)C2=O)cc1` [Compound 6a, 2-(5-Benzylidene-2,4-dioxothiazolidin-3-yl)-N-(4-(N-(ethylcarbamothioyl)sulfamoyl)phenyl)acetamide], the melting point is 282 to 284 °C. Also, in data set [1], it took 17.7 ± 2.3 µM to reach half-maximal inhibition (IC50) and the “fold more toxic in HCT-116 than in normal VERO cells” value (shortened to “fold more toxic in HCT-116 than”) amounted to 2.74 fold. The compound further gave an IC50 in data set [2] of 0.17 ± 0.02 µM. Besides, the IC50 in data set [5] amounted to 0.323 µM. Further, in data set [3], the IC50 was determined as 16.5 ± 2.3 µM and the “fold higher toxicity in MCF-7 than in normal VERO cells” value (“fold higher toxicity in MCF-7 than” for short) stood at 2.93 fold. Besides, the EC50 in data set [6] is 0.87 µM. For the same compound, inhibition in data set [7] was half-maximal at 48.31 ± 0.22 µM (IC50). Besides, in data set [4], the IC50 is 14.2 ± 2.3 µM and the “fold more toxic against HepG2 than normal VERO cells” value was determined as 3.41 fold.
Regarding `Cc1ccc(C=C2SC(=O)N(CC(=O)Nc3ccc(S(=O)(=O)NC(=S)Nc4ccccc4)cc3)C2=O)cc1` [Compound 7b, 2-(5-(4-Methylbenzylidene)-2,4-dioxothiazolidin-3-yl)-N-(4-(N-(phenylcarbamothioyl)sulfamoyl)-phenyl)acetamide], the IC50 was 13.5 ± 1.6 µM in data set [1]; 0.11 ± 0.02 µM in data set [2]; 0.305 µM in data set [5]; 12.9 ± 1.7 µM in data set [3]; 52.61 ± 0.22 µM in data set [7]; 9.65 ± 1.7 µM in data set [4]. The “fold more toxic in HCT-116 than” value in data set [1] was found to be 3.90 fold. Further, in data set [3], the “fold higher toxicity in MCF-7 than” value is reported as 4.08 fold. Besides, in data set [6], the half-maximal effective concentration (EC50) is 0.75 µM. Also, the “fold more toxic against HepG2 than normal VERO cells” value in data set [4] is 5.45 fold.
As for `Cc1ccc(C=C2SC(=O)N(CC(=O)Nc3ccc(S(=O)(=O)NC(=S)NC4CCCCC4)cc3)C2=O)cc1` [Compound 7c, N-(4-(N-(Cyclohexylcarbamothioyl)sulfamoyl)phenyl)-2-(5-(4-methylbenzylidene)-2,4-dioxothiazolidin-3-yl)acetamide], the IC50 is 5.77 ± 1.9 µM in data set [1]; 0.08 ± 0.02 µM in data set [2]; 0.296 µM in data set [5]; 7.78 ± 1.9 µM in data set [3]; 68.25 ± 0.21 µM in data set [7]; 8.82 ± 1.9 µM in data set [4]. Further, in data set [1], the “fold more toxic in HCT-116 than” value is reported as 11.83 fold. Further, the “fold higher toxicity in MCF-7 than” value in data set [3] was 8.77 fold. Besides, the EC50 in data set [6] was determined as 0.7 µM. In addition, in data set [4], the “fold more toxic against HepG2 than normal VERO cells” value stood at 7.74 fold.
`CCNC(=S)NS(=O)(=O)c1ccc(NC(=O)CN2C(=O)SC(=Cc3ccc(C)cc3)C2=O)cc1` [Compound 7a, N-(4-(N-(Ethylcarbamothioyl)sulfamoyl)phenyl)-2-(5-(4-methylbenzylidene)-2,4-dioxothiazolidin-3-yl)acetamide] came in with a melting point of 285 to 287 °C. Also, in data set [1], the IC50 stood at 16.8 ± 1.5 µM and the “fold more toxic in HCT-116 than” value was found to be 3.58 fold. This compound also had an IC50 in data set [2] of 0.14 ± 0.02 µM. The IC50 in data set [5] was determined as 0.32 µM. For the same compound, in data set [3], half-maximal inhibition (IC50) was put at 16.7 ± 1.5 µM and the “fold higher toxicity in MCF-7 than” value is recorded as 3.61 fold. For the same compound, the EC50 in data set [6] worked out at 0.81 µM. The compound also showed an IC50 in data set [7] of 60.12 ± 0.18 µM. Besides, in data set [4], the IC50 turned out to be 12.1 ± 1.5 µM and the “fold more toxic against HepG2 than normal VERO cells” value was 4.99 fold.
As for `O=C(CN1C(=O)CSC1=O)Nc1ccc(S(=O)(=O)NC(=S)NC2CCCCC2)cc1` [Compound 5c, N-(4-(N-(Cyclohexylcarbamothioyl)sulfamoyl)phenyl)-2-(2,4-dioxothiazolidin-3-yl)acetamide], the melting point fell in the range of 267 to 269 °C. The same compound came in with an IC50 in data set [1] of 23.6 ± 2.6 µM. Moreover, the IC50 in data set [2] stood at 0.44 ± 0.05 µM. For the same compound, the IC50 in data set [5] was determined as 0.36 µM. Moreover, 24.6 ± 2.6 µM corresponded to half-maximal inhibition in data set [3] (IC50). Further, in data set [6], the EC50 was found to be 1 µM. The compound further gave an IC50 in data set [4] of 20.8 ± 2.6 µM.
Regarding `O=C(CN1C(=O)SC(=Cc2ccccc2)C1=O)Nc1ccc(S(=O)(=O)NC(=S)NC2CCCCC2)cc1` [Compound 6c, 2-(5-Benzylidene-2,4-dioxothiazolidin-3-yl)-N-(4-(N-(cyclohexylcarbamothioyl)sulfamoyl)phenyl)-acetamide], the IC50 was 7.11 ± 1.7 µM in data set [1]; 0.08 ± 0.02 µM in data set [2]; 0.3 µM in data set [5]; 8.15 ± 1.6 µM in data set [3]; 49.26 ± 0.22 µM in data set [7]; 8.99 ± 1.2 µM in data set [4]. For the same compound, in data set [1], the “fold more toxic in HCT-116 than” value amounted to 6.04 fold. The EC50 in data set [6] came to 0.7 µM. Further, the “fold more toxic against HepG2 than normal VERO cells” value in data set [4] amounted to 6.93 fold.
Take `O=C(CN1C(=O)SC(=Cc2ccccc2)C1=O)Nc1ccc(S(=O)(=O)NC(=S)Nc2ccccc2)cc1` [Compound 6b, 2-(5-Benzylidene-2,4-dioxothiazolidin-3-yl)-N-(4-(N-(phenylcarbamothioyl)sulfamoyl)phenyl)-acetamide]: the melting point was in the range of 286 to 288 °C. In addition, in data set [1], the IC50 is 13.8 ± 1.2 µM and the “fold more toxic in HCT-116 than” value is 2.97 fold. The compound also gave an IC50 in data set [2] of 0.15 ± 0.02 µM. Moreover, in data set [5], the IC50 turned out to be 0.308 µM. In data set [3], the midpoint of inhibition, the IC50, lay at 13 ± 1.2 µM and the “fold higher toxicity in MCF-7 than” value was 3.16 fold. In data set [6], the EC50 is 0.78 µM. Besides, the IC50 in data set [7] amounted to 40.88 ± 0.22 µM. In data set [4], inhibition was half-maximal at 10.7 ± 1.6 µM (IC50) and the “fold more toxic against HepG2 than normal VERO cells” value stood at 3.83 fold.
For the compound `O=C(CN1C(=O)CSC1=O)Nc1ccc(S(=O)(=O)NC(=S)Nc2ccccc2)cc1` [Compound 5b, 2-(2,4-Dioxothiazolidin-3-yl)-N-(4-(N-(phenylcarbamothioyl)sulfamoyl)phenyl)acetamide], the melting point lay in the range of 262 to 264 °C. In data set [1], the IC50 stood at 25.7 ± 2 µM. This compound also showed an IC50 in data set [2] of 0.44 ± 0.05 µM. The IC50 in data set [5] stood at 0.377 µM. The same compound returned an IC50 in data set [3] of 23.2 ± 2 µM. The EC50 in data set [6] was found to be 1.13 µM. In data set [4], half-maximal inhibition (IC50) required 22 ± 2 µM.
For the compound `Cc1ccc(C=C2SC(=O)N(CC(=O)Nc3ccc(S(N)(=O)=O)cc3)C2=O)cc1` [Compound 4b, 2-(5-(4-Methylbenzylidene)-2,4-dioxothiazolidin-3-yl)-N-(4-sulfamoylphenyl)acetamide], the melting point was 240 to 242 °C. Moreover, the IC50 in data set [1] worked out at 57.9 ± 5.1 µM. For the same compound, inhibition in data set [2] was half-maximal at 0.89 ± 0.06 µM (IC50). In data set [3], this compound gave an IC50 of 62.4 ± 5.1 µM. Also, the IC50 in data set [4] is 48.6 ± 5.1 µM.
As for `CCC1=C(C)CN(C(=O)NCCc2ccc(S(=O)(=O)NC(=O)N[C@H]3CC[C@H](C)CC3)cc2)C1=O` [Glimiperide, reference compound], the EC50 in data set [6] stood at 0.73 µM.
On to `COc1cccc2c1C(=O)c1c(O)c3c(c(O)c1C2=O)C[C@@](O)(C(=O)CO)C[C@@H]3O[C@H]1C[C@H](N)[C@H](O)[C@H](C)O1` [Doxorubicin, reference compound], for which the IC50 in data set [3] was found to be 6.75 ± 0.4 µM; in data set [4], 7.94 ± 0.6 µM.
Consider `NS(=O)(=O)c1ccc(NC(=O)CN2C(=O)SC(=Cc3ccccc3)C2=O)cc1` [Compound 4a, 2-(5-Benzylidene-2,4-dioxothiazolidin-3-yl)-N-(4-sulfamoylphenyl)acetamide], for which the melting point fell in the range of 226 to 228 °C. Also, the IC50 in data set [1] amounted to 55.1 ± 5.1 µM. In addition, the half-inhibitory concentration (IC50) in data set [2] turned out to be 0.92 ± 0.06 µM. In data set [3], this compound had an IC50 of 55 ± 5.1 µM. Further, 52.9 ± 5.1 µM corresponded to half-maximal inhibition in data set [4] (IC50).

These data come from publication PMC8880361, “Design, Molecular Docking, Synthesis, Anticancer and Anti-Hyperglycemic Assessments of Thiazolidine-2,4-diones Bearing Sulfonylthiourea Moieties as Potent VEGFR-2 Inhibitors and PPARγ Agonists” (Pharmaceuticals, 2022).
